Experiment [1] deals with T1, mouse FAP (mFAP) (Mus musculus, UniProt P97321).
T1 sequence (P97321 26-761 limits assumed): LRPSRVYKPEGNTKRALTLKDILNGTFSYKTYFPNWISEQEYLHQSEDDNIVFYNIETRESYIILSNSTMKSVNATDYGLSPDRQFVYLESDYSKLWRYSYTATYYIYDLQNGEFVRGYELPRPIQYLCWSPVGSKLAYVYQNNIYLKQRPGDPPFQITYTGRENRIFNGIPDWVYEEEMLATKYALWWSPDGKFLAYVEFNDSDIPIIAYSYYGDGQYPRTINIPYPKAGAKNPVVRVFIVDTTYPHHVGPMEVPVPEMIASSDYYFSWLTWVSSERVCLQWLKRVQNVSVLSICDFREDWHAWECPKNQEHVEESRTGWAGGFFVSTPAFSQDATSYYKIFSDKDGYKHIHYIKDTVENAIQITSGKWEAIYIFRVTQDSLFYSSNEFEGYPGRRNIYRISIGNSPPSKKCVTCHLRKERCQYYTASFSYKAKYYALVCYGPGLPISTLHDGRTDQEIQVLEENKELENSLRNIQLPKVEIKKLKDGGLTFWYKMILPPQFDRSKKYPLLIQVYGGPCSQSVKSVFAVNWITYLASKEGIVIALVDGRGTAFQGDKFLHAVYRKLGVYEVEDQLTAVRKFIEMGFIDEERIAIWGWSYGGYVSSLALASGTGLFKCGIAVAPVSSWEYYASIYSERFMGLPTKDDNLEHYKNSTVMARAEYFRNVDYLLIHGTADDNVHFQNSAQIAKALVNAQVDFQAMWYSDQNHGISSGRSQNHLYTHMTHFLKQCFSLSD
Put plainly: In vitro inhibition assay on mouse FAP (Z-GP-AMC substrate). The format is biochemical. Conditions: 20 μM Z-GP-AMC, 20 nM FAP, pH 7.4, room temperature. The method, then:
(§1) Enzymatic activity of human FAP (hFAP) and mouse FAP (mFAP) on the Z-GP-AMC substrate was measured at room temperature on a Hidex microplate reader by monitoring the fluorescence at an excitation wavelength of 360 nm and an emission wavelength of 465 nm. The reaction mixture contained 20 μM substrate, 20 nM FAP, assay buffer (50 mM Tris, 100 mM NaCl, 1 mM EDTA, pH 7.4) and tested compound (serial dilution from 10-6 to 10^−12) in a total volume of 50 μL.
Results with FAPI-46 obtained in the same assay is included for comparison.

Experiment [2] deals with T2, human FAP (hFAP) (Homo sapiens, UniProt Q12884).
T2 sequence (Q12884 26-760 limits assumed): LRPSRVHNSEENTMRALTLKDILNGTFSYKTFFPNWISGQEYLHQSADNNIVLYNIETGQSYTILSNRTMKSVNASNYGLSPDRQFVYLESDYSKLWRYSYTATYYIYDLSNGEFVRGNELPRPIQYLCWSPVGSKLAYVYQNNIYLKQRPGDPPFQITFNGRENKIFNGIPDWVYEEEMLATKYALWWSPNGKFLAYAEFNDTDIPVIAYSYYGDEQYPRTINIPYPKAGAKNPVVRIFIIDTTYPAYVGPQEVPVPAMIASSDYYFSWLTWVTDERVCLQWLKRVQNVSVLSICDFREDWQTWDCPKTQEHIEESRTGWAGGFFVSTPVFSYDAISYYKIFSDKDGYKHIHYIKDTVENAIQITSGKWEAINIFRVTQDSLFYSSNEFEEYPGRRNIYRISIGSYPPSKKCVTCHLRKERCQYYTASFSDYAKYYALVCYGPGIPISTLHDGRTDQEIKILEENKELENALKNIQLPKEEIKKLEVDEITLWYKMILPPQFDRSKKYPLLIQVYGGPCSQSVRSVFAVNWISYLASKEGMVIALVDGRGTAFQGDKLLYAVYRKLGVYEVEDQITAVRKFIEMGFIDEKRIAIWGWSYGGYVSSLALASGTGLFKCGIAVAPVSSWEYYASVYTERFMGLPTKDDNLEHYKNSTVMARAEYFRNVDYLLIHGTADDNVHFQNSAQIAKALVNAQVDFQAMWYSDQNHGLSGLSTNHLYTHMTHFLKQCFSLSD
Put plainly: In vitro inhibition assay on human FAP (Z-GP-AMC substrate). The format is biochemical. Conditions: 20 μM Z-GP-AMC, 20 nM FAP, pH 7.4, room temperature. The method, then: as §1

Each structure is given as a SMILES string.

Turning to `CN1/C(=C/C=C/C=C/C2=[N+](CCCCCC(=O)NCCCOc3cccc4c(C(=O)NCC(=O)N5CC(F)(F)C[C@H]5C#N)ccnc34)c3ccc(S(=O)(=O)[O-])cc3C2(C)C)C(C)(C)c2cc(S(=O)(=O)O)ccc21` [eFAP-7, 1-(6-((3-((4-((2-((S)-2-Cyano-4,4-difluoropyrrolidin-1-yl)-2-oxoethyl)carbamoyl)quinolin-8-yl)oxy)propyl)amino)-6-oxohexyl)-3,3-dimethyl-5-sulfo-2-((1E,3E)-5-((E)-1,3,3-trimethyl-5-sulfoindolin-2-ylidene)penta-1,3-dien-1-yl)-3H-indol-1-ium], the IC50 in experiment [1] was 2.5 ± 0.8 nM.

`N#C[C@@H]1CC(F)(F)CN1C(=O)CNC(=O)c1ccnc2c(OCCCNC(=O)CCC(C(=O)O)N3CCN(CC(=O)O)CCN(CC(=O)O)CCN(CC(=O)O)CC3)cccc12` (stereo partly drawn) [eFAP-8, 2,2′,2″-(10-(1-Carboxy-4-((3-((4-((2-((S)-2-cyano-4,4-difluoropyrrolidin-1-yl)-2-oxoethyl)carbamoyl)quinolin-8-yl)oxy)propyl)amino)-4-oxobutyl)-1,4,7,10-tetraazacyclododecane-1,4,7-triyl)triacetic acid]: the IC50 in experiment [2] worked out at 1.5 ± 0.2 nM; in experiment [1] it was 1.1 ± 0.4 nM.

For `N#C[C@@H]1CC(F)(F)CN1C(=O)CNC(=O)c1ccnc2c(OCCCNC(=O)C3CCC(CNC(=O)CN4CCN(CC(=O)O)CCN(CC(=O)O)CCN(CC(=O)O)CC4)CC3)cccc12` (stereo partly drawn) [eFAP-9, 2,2′,2″-(10-(2-(((4-((3-((4-((2-((S)-2-Cyano-4,4-difluoropyrrolidin-1-yl)-2-oxoethyl)carbamoyl)quinolin-8-yl)oxy)propyl)carbamoyl)cyclohexyl)methyl)amino)-2-oxoethyl)-1,4,7,10-tetraazacyclododecane-1,4,7-triyl)triacetic acid], the figures for the concentration for half-maximal inhibition (IC50) in experiment [2] and in experiment [1] were 2.9 ± 0.6 nM and 2.3 ± 0.3 nM, respectively.

`N#C[C@@H]1CC(F)(F)CN1C(=O)CNC(=O)c1ccnc2c(OCCCNC(=O)CN3CCC(NC(=O)CN4CCN(CC(=O)O)CCN(CC(=O)O)CCN(CC(=O)O)CC4)CC3)cccc12` [eFAP-10, (S)-2,2′,2″-(10-(2-((1-(2-((3-((4-((2-(2-Cyano-4,4-difluoropyrrolidin-1-yl)-2-oxoethyl)carbamoyl)quinolin-8-yl)oxy)propyl)amino)-2-oxoethyl)piperidin-4-yl)amino)-2-oxoethyl)-1,4,7,10-tetraazacyclododecane-1,4,7-triyl)triacetic acid]: the IC50 in experiment [2] and in experiment [1] was 2.4 ± 0.7 nM each time.

As for `N#C[C@@H]1CC(F)(F)CN1C(=O)CNC(=O)c1ccnc2c(OCCCNC(=O)COCC(=O)Nc3ccc(CNC(=O)CN4CCN(CC(=O)O)CCN(CC(=O)O)CCN(CC(=O)O)CC4)cc3)cccc12` [eFAP-11, (S)-2,2′,2″-(10-(2-((4-(2-(2-((3-((4-((2-(2-Cyano-4,4-difluoropyrrolidin-1-yl)-2-oxoethyl)carbamoyl)quinolin-8-yl)oxy)propyl)amino)-2-oxoethoxy)acetamido)benzyl)amino)-2-oxoethyl)-1,4,7,10-tetraazacyclododecane-1,4,7-triyl)triacetic acid], the 50% inhibitory concentration (IC50) in experiment [1] stood at 1.5 ± 0.2 nM.

For `N#C[C@@H]1CC(F)(F)CN1C(=O)CNC(=O)c1ccnc2c(OCCCNC(=O)CN3CCN(C(=O)CN4CCN(CC(=O)O)CCN(CC(=O)O)CCN(CC(=O)O)CC4)CC3)cccc12` [eFAP-12, (S)-2,2′,2″-(10-(2-(4-(2-((3-((4-((2-(2-Cyano-4,4-difluoropyrrolidin-1-yl)-2-oxoethyl)carbamoyl)quinolin-8-yl)oxy)propyl)amino)-2-oxoethyl)piperazin-1-yl)-2-oxoethyl)-1,4,7,10-tetraazacyclododecane-1,4,7-triyl)triacetic acid], the half-inhibitory concentration (IC50) in experiment [1] was found to be 1.8 ± 0.2 nM.

As for `N#C[C@@H]1CC(F)(F)CN1C(=O)CNC(=O)c1ccnc2c(OCCCNC(=O)CN3CCN(CCNC(=O)CN4CCN(CC(=O)O)CCN(CC(=O)O)CCN(CC(=O)O)CC4)CC3)cccc12` [eFAP-13, (S)-2,2′,2″-(10-(2-((2-(4-(2-((3-((4-((2-(2-Cyano-4,4-difluoropyrrolidin-1-yl)-2-oxoethyl)carbamoyl)quinolin-8-yl)oxy)propyl)amino)-2-oxoethyl)piperazin-1-yl)ethyl)amino)-2-oxoethyl)-1,4,7,10-tetraazacyclododecane-1,4,7-triyl)triacetic acid], the IC50 in experiment [1] turned out to be 1.3 ± 0.6 nM.

As to `N#C[C@@H]1CC(F)(F)CN1C(=O)CNC(=O)c1ccnc2c(OCCCNC(=O)CCSc3nnc(SCCC(=O)NCCCOc4cccc5c(C(=O)NCC(=O)N6CC(F)(F)C[C@H]6C#N)ccnc45)c4c3CCCC(OC(=O)NCCCNC(=O)CCC(C(=O)O)N3CCN(CC(=O)O)CCN(CC(=O)O)CCN(CC(=O)O)CC3)CC4)cccc12` (stereo partly drawn) [eFAP-20, 2,2′,2″-(10-(4-((3-((((1,4-bis((3-((3-((4-((2-((S)-2-cyano-4,4-difluoropyrrolidin-1-yl)-2-oxoethyl)carbamoyl)quinolin-8-yl)oxy)propyl)amino)-3-oxopropyl)thio)-5,6,7,8,9,10-hexahydrocycloocta[d]pyridazin-7-yl)oxy)carbonyl)amino)propyl)amino)-1-carboxy-4-oxobutyl)-1,4,7,10-tetraazacyclododecane-1,4,7-triyl)triacetic acid], the IC50 turned out to be 1.15 nM in experiment [2] and 1.11 nM in experiment [1].

As for `N#C[C@@H]1CC(F)(F)CN1C(=O)CNC(=O)c1ccnc2c(OCCCNC(=O)CC(O)CNC(=O)CC(O)CNC(=S)Nc3ccc4c(c3)C(=O)OC43c4ccc(O)cc4Oc4cc(O)ccc43)cccc12` (stereo partly drawn) [eFAP-23, N-(2-((S)-2-cyano-4,4-difluoropyrrolidin-1-yl)-2-oxoethyl)-8-(3-(4-(4-(3-(3′,6′-dihydroxy-3-oxo-3H-spiro[isobenzofuran-1,9′-xanthen]-5-yl)thioureido)-3-hydroxybutanamido)-3-hydroxybutanamido)propoxy)quinoline-4-carboxamide], in experiment [1], the IC50 was found to be 2 ± 0.4 nM.

In experiment [2], `N#C[C@@H]1CC(F)(F)CN1C(=O)CNC(=O)c1ccnc2c(OCCCNC(=O)CCSCC(=O)N3CN(C(=O)CSCCC(=O)NCCCOc4cccc5c(C(=O)NCC(=O)N6CC(F)(F)C[C@H]6C#N)ccnc45)CN(C(=O)Cn4nnc5c4CC[C@H]4[C@@H](CC5)[C@H]4COC(=O)NCCNC(=O)CCC(C(=O)O)N4CCN(CC(=O)O)CCN(CC(=O)O)CCN(CC(=O)O)CC4)C3)cccc12` (some centres unmarked) [eFAP-34] had a concentration for half-maximal inhibition (IC50) of 1.8 nM.

On to `N#C[C@@H]1CC(F)(F)CN1C(=O)CNC(=O)c1ccnc2c(OCCCNC(=O)CCCCCSCC(=O)N3CN(C(=O)CSCCCCCC(=O)NCCCOc4cccc5c(C(=O)NCC(=O)N6CC(F)(F)C[C@H]6C#N)ccnc45)CN(C(=O)Cn4nnc5c4CC[C@@H]4[C@H](CC5)[C@@H]4COC(=O)NCCNC(=O)CCC(C(=O)O)N4CCN(CC(=O)O)CCN(CC(=O)O)CCN(CC(=O)O)CC4)C3)cccc12` (some centres unmarked) [eFAP-35], for which the 50% inhibitory concentration (IC50) in experiment [2] amounted to 1.7 nM.

Consider `N#C[C@@H]1CC(F)(F)CN1C(=O)CNC(=O)c1ccnc2c(OCCCNC(=O)CCOCCOCCNCC(=O)N3CN(C(=O)CNCCOCCOCCC(=O)NCCCOc4cccc5c(C(=O)NCC(=O)N6CC(F)(F)C[C@H]6C#N)ccnc45)CN(C(=O)Cn4nnc5c4CC[C@H]4[C@@H](CC5)[C@H]4COC(=O)NCCNC(=O)CCC(C(=O)O)N4CCN(CC(=O)O)CCN(CC(=O)O)CCN(CC(=O)O)CC4)C3)cccc12` (some centres unmarked) [eFAP-36], for which the IC50 in experiment [2] worked out at 0.35 nM.

In turn, `N#C[C@@H]1CC(F)(F)CN1C(=O)CNC(=O)c1ccnc2c(OCCCNC(=O)CCOCCOCCNc3nc(NCCCn4nnc5c4CC[C@H]4[C@@H](CC5)[C@H]4COC(=O)NCCNC(=O)CCC(C(=O)O)N4CCN(CC(=O)O)CCN(CC(=O)O)CCN(CC(=O)O)CC4)nc(NCCOCCOCCC(=O)NCCCOc4cccc5c(C(=O)NCC(=O)N6CC(F)(F)C[C@H]6C#N)ccnc45)n3)cccc12` (some centres unmarked) [eFAP-37] yielded a half-inhibitory concentration (IC50) in experiment [1] of 0.8 ± 0.1 nM.

One may read the IC50 as the concentration that gives 50% inhibition. A low value points to higher potency.

The values above are taken from patent US20260327242A1, “Platform and Scaffold for FAP Targeting Agents” (Erasmus University Medical Center Rotterdam, priority 2022, published 2026).
